The source of these data is ChEMBL document CHEMBL2073811, “Uptake of the mycotoxin ochratoxin A in liver cells occurs via the cloned organic anion transporting polypeptide” (J Pharmacol Exp Ther, 1996).

Each structure is given as a SMILES string.

Data set [1] has as its target T1, Solute carrier organic anion transporter family member 1A1 (Rattus norvegicus, UniProt P46720).
T1 sequence (P46720 whole entry): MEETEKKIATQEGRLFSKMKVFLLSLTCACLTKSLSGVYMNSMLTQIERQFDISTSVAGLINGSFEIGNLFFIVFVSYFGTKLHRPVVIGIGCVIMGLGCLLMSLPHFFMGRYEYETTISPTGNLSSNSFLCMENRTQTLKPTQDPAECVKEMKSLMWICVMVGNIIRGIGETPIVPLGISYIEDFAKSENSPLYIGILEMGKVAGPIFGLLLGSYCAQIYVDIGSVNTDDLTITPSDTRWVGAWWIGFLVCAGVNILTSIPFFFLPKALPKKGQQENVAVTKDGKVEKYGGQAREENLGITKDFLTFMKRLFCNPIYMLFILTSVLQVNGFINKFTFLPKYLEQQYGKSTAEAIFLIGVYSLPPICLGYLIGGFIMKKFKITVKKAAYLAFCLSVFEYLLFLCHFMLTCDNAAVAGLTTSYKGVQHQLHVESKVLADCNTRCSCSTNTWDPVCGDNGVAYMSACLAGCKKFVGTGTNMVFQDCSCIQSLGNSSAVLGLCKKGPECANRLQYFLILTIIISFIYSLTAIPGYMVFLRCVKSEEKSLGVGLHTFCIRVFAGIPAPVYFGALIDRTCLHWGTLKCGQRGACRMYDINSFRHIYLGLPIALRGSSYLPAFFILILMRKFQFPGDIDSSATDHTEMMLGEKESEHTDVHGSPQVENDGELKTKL
The data set is described as follows: TP_TRANSPORTER: inhibition of Ochratoxin A uptake (OTA: 1 uM, E1S: 100uM) in Xenopus laevis oocytes. The format is functional, cell-based. To be noted: oocyte.

Data set [2] deals with T1, Solute carrier organic anion transporter family member 1A1. The data set is described as follows: TP_TRANSPORTER: inhibition of Ochratoxin A uptake (OTA: 1 uM, BSP: 100uM) in Xenopus laevis oocytes. The data set is classed as functional, cell-based. The settings on record: oocyte.
Data set [3] has the same target. The data set is described as follows: TP_TRANSPORTER: inhibition of Ochratoxin A uptake (OTA: 1 uM, GC: 100uM) in Xenopus laevis oocytes. The data set is classed as functional, cell-based. To be noted: oocyte.
For data set [4] the target is unchanged. The data set is described as follows: TP_TRANSPORTER: uptake in Xenopus laevis oocytes. The format is functional, cell-based, Oocyte. The settings on record: Xenopus laevis oocytes expressing the transporter.
Data set [5] has the same target. The data set is described as follows: TP_TRANSPORTER: inhibition of Ochratoxin A uptake (OTA: 1 uM, CRC-220: 100uM) in Xenopus laevis oocytes. The data set is classed as functional, cell-based. To be noted: oocyte.

`C[C@]12CC[C@@H]3c4ccc(OS(=O)(=O)O)cc4CC[C@H]3[C@@H]1CCC2=O` [ESTRONE SULFURIC ACID]: the Activity result in data set [1] is “inhibitor [+]”. For the compound `O=C1OC(c2ccc(O)c(S(=O)(=O)[O-])c2)(c2ccc(O)c(S(=O)(=O)[O-])c2)c2c(Br)c(Br)c(Br)c(Br)c21.[Na+].[Na+]` [SULFOBROMOPHTHALEIN SODIUM], the Activity entry in data set [2] was “inhibitor [+]”.

Consider `C[C@H](CCC(=O)NCC(=O)O)[C@H]1CC[C@H]2[C@@H]3[C@H](O)C[C@@H]4C[C@H](O)CC[C@]4(C)[C@H]3C[C@H](O)[C@]12C` [GLYCOCHOLIC ACID], for which the Activity entry in data set [3] is “inhibitor [+]”. As to `C[C@@H]1Cc2c(Cl)cc(C(=O)N[C@@H](Cc3ccccc3)C(=O)O)c(O)c2C(=O)O1` [3R14S-OCHRATOXIN A], the Km in data set [4] amounted to 16.6 µM.

Regarding `COc1cc(C)c(S(=O)(=O)N[C@@H](CC(=O)O)C(=O)N[C@H](Cc2ccc(C(=N)N)cc2)C(=O)N2CCCCC2)c(C)c1C`, the Activity entry in data set [5] is “inhibitor [+]”.
